# Molecular target: T1, MAP4K5 (KHS1) (Homo sapiens, UniProt Q9Y4K4)
# T1 construct: purchased Thermo Fisher Scientific (Life Technologies) SelectScreen
# Test: SelectScreen Z'LYTE
# Assay type: biochemical
# Outline: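 SelectScreen broad panel; activity (Z'LYTE, Adapta) plus binding formats. ATP: Km app for CSF1R Z'LYTE; 10 for CAMK1 Adapta. Readout = % per kinase.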
# T1 sequence (Q9Y4K4 whole entry): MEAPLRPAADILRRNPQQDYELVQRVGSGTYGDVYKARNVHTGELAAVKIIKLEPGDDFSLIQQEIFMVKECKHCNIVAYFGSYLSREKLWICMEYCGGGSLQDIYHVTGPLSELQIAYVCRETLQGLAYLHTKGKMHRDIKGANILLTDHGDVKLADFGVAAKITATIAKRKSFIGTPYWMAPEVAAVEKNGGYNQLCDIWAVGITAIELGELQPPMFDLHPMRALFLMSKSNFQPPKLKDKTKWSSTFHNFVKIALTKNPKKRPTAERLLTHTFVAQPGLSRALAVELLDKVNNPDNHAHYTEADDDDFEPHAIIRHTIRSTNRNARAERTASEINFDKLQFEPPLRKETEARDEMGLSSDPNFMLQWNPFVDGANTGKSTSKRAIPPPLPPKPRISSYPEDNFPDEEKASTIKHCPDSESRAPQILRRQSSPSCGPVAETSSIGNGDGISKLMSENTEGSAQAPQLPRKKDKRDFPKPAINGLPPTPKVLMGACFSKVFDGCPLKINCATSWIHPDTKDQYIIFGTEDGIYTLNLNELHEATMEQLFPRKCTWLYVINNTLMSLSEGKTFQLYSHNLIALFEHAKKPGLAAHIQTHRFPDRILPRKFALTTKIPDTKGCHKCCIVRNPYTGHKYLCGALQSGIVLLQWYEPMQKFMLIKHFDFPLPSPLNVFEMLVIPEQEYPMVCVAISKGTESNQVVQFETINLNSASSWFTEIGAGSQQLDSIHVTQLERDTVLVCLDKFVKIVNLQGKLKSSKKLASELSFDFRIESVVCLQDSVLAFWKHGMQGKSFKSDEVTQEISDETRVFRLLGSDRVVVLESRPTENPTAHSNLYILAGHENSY
smiles,measurement,value
CN(C(=O)CN1CCOCC1)c1ccc2sc3c(-c4cccc5c(=O)cc(N6CC7CCC(C6)O7)oc45)cccc3c2c1 [NU5455],inhibition at 1 µM,-2%

# Reference: article PMC6934184, “Selective DNA-PKcs inhibition extends the therapeutic index of localized radiotherapy and chemotherapy” (The Journal of Clinical Investigation, 2019)
